Assays:
[1] = target: T1, Rat IKK-2 (Rattus norvegicus, UniProt Q9QY78); assay: Rat IKK-2 enzyme assay; assay type: biochemical; conditions: read-out: IC50 (μM) rIKK-2
T1 sequence (Q9QY78 1-757): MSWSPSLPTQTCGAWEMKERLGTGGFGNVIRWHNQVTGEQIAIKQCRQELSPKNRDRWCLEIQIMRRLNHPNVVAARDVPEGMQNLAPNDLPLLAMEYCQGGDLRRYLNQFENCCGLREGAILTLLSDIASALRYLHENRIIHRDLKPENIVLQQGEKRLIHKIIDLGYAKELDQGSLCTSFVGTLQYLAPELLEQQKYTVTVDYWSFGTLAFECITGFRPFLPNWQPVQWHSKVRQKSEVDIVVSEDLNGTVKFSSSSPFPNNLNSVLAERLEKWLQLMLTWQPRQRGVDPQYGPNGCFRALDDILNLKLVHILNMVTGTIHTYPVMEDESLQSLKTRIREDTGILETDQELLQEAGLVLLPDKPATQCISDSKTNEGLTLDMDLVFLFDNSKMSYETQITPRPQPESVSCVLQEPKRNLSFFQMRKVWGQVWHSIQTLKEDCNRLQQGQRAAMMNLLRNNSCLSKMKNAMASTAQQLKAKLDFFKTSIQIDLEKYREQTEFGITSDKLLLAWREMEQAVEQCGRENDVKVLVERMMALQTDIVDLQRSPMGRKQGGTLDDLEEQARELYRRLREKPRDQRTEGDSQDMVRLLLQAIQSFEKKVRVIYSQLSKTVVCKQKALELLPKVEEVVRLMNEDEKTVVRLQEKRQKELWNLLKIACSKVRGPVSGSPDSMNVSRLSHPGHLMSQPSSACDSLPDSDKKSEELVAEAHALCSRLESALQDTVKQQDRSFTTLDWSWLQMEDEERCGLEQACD
Experimental: Kinase activity was measured using a biotinylated […] peptide (Gly-Leu-Lys-Lys-Glu-Arg-Leu-Leu-Asp-Asp-Arg-His-Asp-Ser32-Gly-Leu-Asp-Ser36-Met-Lys-Asp-Glu-Glu) (American Peptide Co.). 20 μL of the standard reaction mixture contained 5 μM biotinylated IκBα peptide, 0.1 μCi/reaction [γ-^33P] ATP (Amersham) (about 1×10^5 cpm), 1 μM ATP (Sigma), 1 mM DTT (Sigma), 2 mM MgCl2 (Sigma), 2 mM MnCl2 (Sigma), 10 mM NaF (Sigma), 25 mM Hepes (Sigma) buffer, pH. 7.6 and 20 μL enzyme solution (50 nM/rxn or 200 ng/rxn) and 10 μL inhibitor in a final volume of 50 μL. After incubation at 25° C. for 60 min, 150 μL resin was added to each well to stop the reaction. Resin was mixed and allowed to settle for 1 h and 50 μL of supernatant was removed to a Micolite 2 flat bottom plate (Dynex). 150 μL of scintillation fluid (Microscint 40) (Packard) was added to each well. Incorporation of [γ-^33P] ATP was measured using a Top-Count NXT (Packard).

[2] = target: T2, human IKK-2 (rhIKK-2 homodimer) (Homo sapiens, UniProt O14920); assay: IKK-2 Resin Enzyme Assay (Human IKK-2 Enzyme Assay); assay type: biochemical; conditions: human IKK-2, resin enzyme assay; read-out: IC50 (μM) hIKK-2
T2 construct: FLAG (DYKDDDDKD) (C); made in house; host or cells: insect cells (baculovirus, pFastBac)
T2 sequence (O14920 1-756): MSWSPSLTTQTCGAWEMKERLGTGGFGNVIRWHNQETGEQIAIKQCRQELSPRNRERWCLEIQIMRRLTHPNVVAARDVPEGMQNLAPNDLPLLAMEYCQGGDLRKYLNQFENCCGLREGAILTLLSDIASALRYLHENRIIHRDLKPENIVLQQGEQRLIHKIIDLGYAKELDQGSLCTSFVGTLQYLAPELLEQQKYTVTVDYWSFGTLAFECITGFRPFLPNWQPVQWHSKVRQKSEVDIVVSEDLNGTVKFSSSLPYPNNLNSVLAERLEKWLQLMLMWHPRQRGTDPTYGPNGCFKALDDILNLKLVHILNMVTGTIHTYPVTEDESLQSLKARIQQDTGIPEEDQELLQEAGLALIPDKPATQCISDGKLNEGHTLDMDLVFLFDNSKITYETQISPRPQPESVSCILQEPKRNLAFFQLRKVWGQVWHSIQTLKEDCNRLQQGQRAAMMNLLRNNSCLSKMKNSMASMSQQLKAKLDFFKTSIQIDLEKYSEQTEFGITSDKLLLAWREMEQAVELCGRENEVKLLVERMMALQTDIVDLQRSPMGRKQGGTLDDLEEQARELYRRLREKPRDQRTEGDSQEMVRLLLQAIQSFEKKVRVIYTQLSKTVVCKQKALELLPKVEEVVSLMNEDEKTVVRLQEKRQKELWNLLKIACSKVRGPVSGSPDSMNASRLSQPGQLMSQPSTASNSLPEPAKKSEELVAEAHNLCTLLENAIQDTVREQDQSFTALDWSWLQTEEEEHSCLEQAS
Summary of the method: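 C-terminally FLAG-tagged human IKK-2 homodimer, baculovirus-expressed in insect cells and anti-FLAG purified. Reaction mix: 5 μM biotinylated IκBα peptide (Ser32/Ser36 region), 1 μM ATP with [γ-33P]ATP, 2 mM MgCl2, 2 mM MnCl2, 10 mM NaF, 1 mM DTT, 25 mM HEPES pH 7.6. Incubated 30 min at 25 °C; IC50 derived.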

| SMILES | IC50 [1] [µM] | IC50 [2] [µM] |
| --- | --- | --- |
| NC(=O)Nc1cn(-c2ccc(-c3cc(F)ccc3O)c(F)c2)nc1C(N)=O [Example 263, 4-[(aminocarbonyl)amino]-1-(2,5′-difluoro-2′-hydroxy-1,1′-biphenyl-4-yl)-1H-pyrazole-3-carboxamide] | 0.482 | – |
| NC(=O)COc1ccccc1-c1ccc(-n2cc(NC(N)=O)c(C(N)=O)n2)cc1F [Example 266, 4-[(aminocarbonyl)amino]-1-[2′-(2-amino-2-oxoethoxy)-2-fluoro-1,1′-biphenyl-4-yl]-1H-pyrazole-3-carboxamide] | 0.392 | – |
| COc1ccccc1-c1ccc(-n2cc(NC(N)=O)c(C(N)=O)n2)cc1F [Example 267, 4-[(aminocarbonyl)amino]-1-(2-fluoro-2′-methoxy-1,1′-biphenyl-4-yl)-1H-pyrazole-3-carboxamide] | 2.75 | – |
| NC(=O)COc1cc(F)ccc1-c1ccc(-n2cc(NC(N)=O)c(C(N)=O)n2)cc1F [Example 268, 4-[(aminocarbonyl)amino]-1-[2′-(2-amino-2-oxoethoxy)-2,4′-difluoro-1,1′-biphenyl-4-yl]-1H-pyrazole-3-carboxamide] | 0.175 | – |
| NC(=O)Nc1cn(-c2cccc(-c3ccc(C(F)(F)F)cc3)c2)nc1C(N)=O [Example 368, 4-[(aminocarbonyl)amino]-1-[4′-(trifluoromethyl)-1,1′-biphenyl-3-yl]-1H-pyrazole-3-carboxamide] | – | > 20 |
| NC(=O)Nc1cn(-c2cccc(-c3cccc(-c4ccccc4)c3)c2)nc1C(N)=O [Example 372] | – | > 20 |
| NC(=O)Nc1cn(-c2cccc(-c3ccc(-c4ccccc4)cc3)c2)nc1C(N)=O [Example 373, 4-[(aminocarbonyl)amino]-1-(1,1′:4′,1″-terphenyl-3-yl)-1H-pyrazole-3-carboxamide] | – | > 20 |
| NC(=O)Nc1cn(-c2cccc(-c3ccc(C4CCCCC4)cc3)c2)nc1C(N)=O [Example 375, 4-[(aminocarbonyl)amino]-1-(4′-cyclohexyl-1,1′-biphenyl-3-yl)-1H-pyrazole-3-carboxamide] | – | > 20 |
| NC(=O)Nc1cn(-c2ccc(Sc3ccc(F)cc3)cc2Cl)nc1C(N)=O [Example 376, 1-(1-(4-(4-fluorophenylthio)-2-chlorophenyl)-3-carbamoyl-1H-pyrazol-4-yl)urea] | – | 0.31 |
| NC(=O)Nc1cn(-c2ccc(S(=O)(=O)c3ccc(F)cc3)cc2Cl)nc1C(N)=O [Example 377, 1-(1-(4-(4-fluorophenylsulfonyl)-2-chlorophenyl)-3-carbamoyl-1H-pyrazol-4-yl)urea] | – | 0.113 |
| NC(=O)Nc1cn(-c2ccc(S(=O)(=O)c3ccc(F)cc3)cc2F)nc1C(N)=O [Example 378, 1-(1-(4-(4-fluorophenylsulfonyl)-2-fluorophenyl)-3-carbamoyl-1H-pyrazol-4-yl)urea] | – | 0.315 |
| NC(=O)Nc1cn(-c2ccc(-c3ccccc3CCC(=O)O)cc2)nc1C(N)=O [Example 379, 3-(4′-{3-(aminocarbonyl)-4-[(aminocarbonyl)amino]-1H-pyrazol-1-yl}-1,1′-biphenyl-2-yl)propanoic acid] | – | 1.95 |
| COc1ccc(CNC(=O)CCc2cccc(-c3ccc(-n4cc(NC(N)=O)c(C(N)=O)n4)cc3)c2)c(OC)c1 [Example 380, 4-[(aminocarbonyl)amino]-1-(3′-{3-[(2,4-dimethoxybenzyl)amino]-3-oxopropyl}-1,1′-biphenyl-4-yl)-1H-pyrazole-3-carboxamide] | – | 1.54 |
| CNC(=O)CCc1cccc(-c2ccc(-n3cc(NC(N)=O)c(C(N)=O)n3)cc2)c1 [Example 381, 4-[(aminocarbonyl)amino]-1-{3′-[3-(methylamino)-3-oxopropyl]-1,1′-biphenyl-4-yl}-1H-pyrazole-3-carboxamide] | – | 0.42 |
| CCN(CC)C(=O)CCc1cccc(-c2ccc(-n3cc(NC(N)=O)c(C(N)=O)n3)cc2)c1 [Example 382, 4-[(aminocarbonyl)amino]-1-{3′-[3-(diethylamino)-3-oxopropyl]-1,1′-biphenyl-4-yl}-1H-pyrazole-3-carboxamide] | – | 0.9 |
| CNC(=O)COc1cccc(-c2ccc(-n3cc(NC(N)=O)c(C(N)=O)n3)cc2)c1 [Example 383, 4-[(aminocarbonyl)amino]-1-{3′-[2-(methylamino)-2-oxoethoxy]-1,1′-biphenyl-4-yl}-1H-pyrazole-3-carboxamide] | – | 0.07 |

Now from value to compound:

| IC50 [1] [µM] | IC50 [2] [µM] | SMILES |
| --- | --- | --- |
| 0.17 | – | NC(=O)Nc1cn(-c2ccc(-c3ccc(O)cc3)c(F)c2)nc1C(N)=O [Example 264, 4-[(aminocarbonyl)amino]-1-(2-fluoro-4′-hydroxy-1,1′-biphenyl-4-yl)-1H-pyrazole-3-carboxamide] |
| 6.16 | – | NC(=O)Nc1cn(-c2ccc(-c3ccc(O)c(F)c3)c(F)c2)nc1C(N)=O [Example 265, 4-[(aminocarbonyl)amino]-1-(2,3′-difluoro-4′-hydroxy-1,1′-biphenyl-4-yl)-1H-pyrazole-3-carboxamide] |
| – | 11.6 | COc1ccc(Cl)cc1-c1cccc(-n2cc(NC(N)=O)c(C(N)=O)n2)c1 [Example 365, 4-[(aminocarbonyl)amino]-1-(5′-chloro-2′-methoxy-1,1′-biphenyl-3-yl)-1H-pyrazole-3-carboxamide] |
| – | > 20 | NC(=O)Nc1cn(-c2cccc(-c3ccccc3C(F)(F)F)c2)nc1C(N)=O [Example 366, 4-[(aminocarbonyl)amino]-1-[2′-(trifluoromeethyl)-1,1′-biphenyl-3-yl]-1H-pyrazole-3-carboxamide] |
| – | > 20 | NC(=O)Nc1cn(-c2cccc(-c3cccc(C(F)(F)F)c3)c2)nc1C(N)=O [Example 367, 4-[(aminocarbonyl)amino]-1-[3′-(trifluoromethyl)-1,1′-biphenyl-3-yl]-1H-pyrazole-3-carboxamide] |
| – | 16.7 | NC(=O)Nc1cn(-c2cccc(-c3ccc(Cl)cc3Cl)c2)nc1C(N)=O [Example 369, 4-[(aminocarbonyl)amino]-1-(2′,4′-dichloro-1,1′-biphenyl-3-yl)-1H-pyrazole-3-carboxamide] |
| – | > 20 | NC(=O)Nc1cn(-c2cccc(-c3cc(Cl)cc(Cl)c3)c2)nc1C(N)=O [Example 370, 4-[(aminocarbonyl)amino]-1-(3′,5′-dichloro-1,1′-biphenyl-3-yl)-1H-pyrazole-3-carboxamide] |
| – | 1.09 | NC(=O)Nc1cn(-c2cccc(-c3ccccc3-c3ccccc3)c2)nc1C(N)=O [Example 371, 4-[(aminocarbonyl)amino]-1-(1,1′:2′,1″-terphenyl-3-yl)-1H-pyrazole-3-carboxamide] |
| – | 0.544 | CS(=O)(=O)c1ccc(-c2cccc(-n3cc(NC(N)=O)c(C(N)=O)n3)c2)cc1 [Example 374, 4-[(aminocarbonyl)amino]-1-[4′-(methylsulfonyl)-1,1′-biphenyl-3-yl]-1H-pyrazole-3-carboxamide] |

Reference: patent publication US20050197338A1, “Substituted pyrazole urea compounds for the treatment of inflammation” (priority 2003, published 2005)
